Measurements taken from ChEMBL document CHEMBL2440076, “New triarylpyrazoles as broad-spectrum anticancer agents: design, synthesis, and biological evaluation” (Eur J Med Chem, 2013).
pIC50: −log10 of the molar value.

Assays:
HCT-15 = test: Growth inhibition of human HCT15 cells after 48 hrs by sulforhodamine B assay; assay type: functional; settings: HCT-15, 48 h
786-0 = test: Growth inhibition of human 786-0 cells after 48 hrs by sulforhodamine B assay; assay type: functional; settings: 786-0, 48 h
[1] = Growth inhibition of human NCI-ADR-RES cells assessed as cell growth at 10 uM after 48 hrs by sulforhodamine B assay; assay type: functional; settings: read-out: Activity
M14 = test: Growth inhibition of human M14 cells assessed as cell growth at 10 uM after 48 hrs by sulforhodamine B assay; assay type: functional; settings: M14, 48 h, read-out: Activity
OVCAR-5 = test: Growth inhibition of human OVCAR5 cells assessed as cell growth at 10 uM after 48 hrs by sulforhodamine B assay; assay type: functional; settings: OVCAR-5, 48 h, read-out: Activity
A549 = test: Growth inhibition of human A549/ATCC cells after 48 hrs by sulforhodamine B assay; assay type: functional; settings: A549, 48 h
SF-539 [2] = test: Growth inhibition of human SF539 cells after 48 hrs by sulforhodamine B assay; assay type: functional; settings: SF-539, 48 h
MDA-MB-468 = test: Growth inhibition of human MDA-MB-468 cells after 48 hrs by sulforhodamine B assay; assay type: functional, cell-based; settings: MDA-MB-468, 48 h
U-251 = test: Growth inhibition of human U251 cells after 48 hrs by sulforhodamine B assay; assay type: functional; settings: U-251, 48 h
UACC-62 = test: Growth inhibition of human UACC62 cells after 48 hrs by sulforhodamine B assay; assay type: functional; settings: UACC-62, 48 h
DU-145 [3] = test: Growth inhibition of human DU145 cells after 48 hrs by sulforhodamine B assay; assay type: functional; settings: DU-145, 48 h
HT-29 = test: Growth inhibition of human HT-29 cells assessed as cell growth at 10 uM after 48 hrs by sulforhodamine B assay; assay type: functional; settings: HT-29, 48 h, read-out: Activity
DU-145 [4] = test: Growth inhibition of human DU145 cells assessed as cell growth at 10 uM after 48 hrs by sulforhodamine B assay; assay type: functional; settings: DU-145, 48 h, read-out: Activity
UO-31 = test: Growth inhibition of human UO31 cells after 48 hrs by sulforhodamine B assay; assay type: functional; settings: UO-31, 48 h
SNB-19 = test: Growth inhibition of human SNB19 cells assessed as cell growth at 10 uM after 48 hrs by sulforhodamine B assay; assay type: functional; settings: SNB-19, 48 h, read-out: Activity
ACHN = test: Growth inhibition of human ACHN cells after 48 hrs by sulforhodamine B assay; assay type: functional
OVCAR-3 = test: Growth inhibition of human OVCAR3 cells assessed as cell growth at 10 uM after 48 hrs by sulforhodamine B assay; assay type: functional; settings: OVCAR-3, 48 h, read-out: Activity
NCI-H322M [5] = test: Growth inhibition of human NCI-H322M cells assessed as cell growth at 10 uM after 48 hrs by sulforhodamine B assay; assay type: functional; settings: read-out: Activity
SR = test: Growth inhibition of human SR cells after 48 hrs by sulforhodamine B assay; assay type: functional
OVCAR-8 [6] = test: Growth inhibition of human OVCAR8 cells after 48 hrs by sulforhodamine B assay; assay type: functional; settings: OVCAR-8, 48 h
SF-539 [7] = test: Growth inhibition of human SF539 cells assessed as cell growth at 10 uM after 48 hrs by sulforhodamine B assay; assay type: functional; settings: SF-539, 48 h, read-out: Activity
KM12 = test: Growth inhibition of human KM12 cells after 48 hrs by sulforhodamine B assay; assay type: functional, cell-based; settings: KM12, 48 h
COLO 205 = test: Growth inhibition of human COLO205 cells assessed as cell growth at 10 uM after 48 hrs by sulforhodamine B assay; assay type: functional; settings: COLO 205, 48 h, read-out: Activity
MDA-MB-231 = test: Growth inhibition of human MDA-MB-231 cells assessed as cell growth at 10 uM after 48 hrs by sulforhodamine B assay; assay type: functional; settings: MDA-MB-231, 48 h, read-out: Activity
OVCAR-8 [8] = test: Growth inhibition of human OVCAR8 cells assessed as cell growth at 10 uM after 48 hrs by sulforhodamine B assay; assay type: functional; settings: OVCAR-8, 48 h, read-out: Activity
UACC-257 = test: Growth inhibition of human UACC257 cells after 48 hrs by sulforhodamine B assay; assay type: functional; settings: UACC-257, 48 h
SK-MEL-28 = test: Growth inhibition of human SK-MEL-28 cells assessed as cell growth at 10 uM after 48 hrs by sulforhodamine B assay; assay type: functional; settings: SK-MEL-28, 48 h, read-out: Activity
HCT-116 = test: Growth inhibition of human HCT116 cells after 48 hrs by sulforhodamine B assay; assay type: functional; settings: HCT-116, 48 h
NCI-H322M [9] = test: Growth inhibition of human NCI-H322M cells after 48 hrs by sulforhodamine B assay; assay type: functional
MCF7 = test: Growth inhibition of human MCF7 cells assessed as cell growth at 10 uM after 48 hrs by sulforhodamine B assay; assay type: functional; settings: MCF7, 48 h, read-out: Activity
K562 = test: Growth inhibition of human K562 cells assessed as cell growth at 10 uM after 48 hrs by sulforhodamine B assay; assay type: functional; settings: K562, 48 h, read-out: Activity
[10] = Growth inhibition of human HCC2998 cells after 48 hrs by sulforhodamine B assay; assay type: functional; settings: HCC 2998, 48 h
SW-620 = test: Growth inhibition of human SW620 cells after 48 hrs by sulforhodamine B assay; assay type: functional; settings: SW-620, 48 h
HOP-92 = test: Growth inhibition of human HOP92 cells assessed as cell growth at 10 uM after 48 hrs by sulforhodamine B assay; assay type: functional; settings: HOP-92, 48 h, read-out: Activity
[11] = read-out: LC50 (the source's name)

`COc1cc(-c2nn(-c3cccc(NC(=O)Nc4cccc(C(F)(F)F)c4)c3)cc2-c2ccncc2)ccc1Cl` gave a GI50 (HCT-15) of 870 nM, an LC50 (HCT-15) of 50 µM and a TGI (HCT-15) of 5.42 µM. For the same compound, the GI50 (786-0) was 1280 nM, the TGI (786-0) was 4.05 µM and the CC50 (786-0; [11]) was greater than 50 µM. It also gave a growth at 10 µM [1] of -11.9%, a growth at 10 µM (M14) of -61.5% and a growth at 10 µM (OVCAR-5) of 28.2%. The GI50 (A549) was 794 nM, the LC50 (concentration killing 50% of starting cells) (A549) was greater than 50 µM and the TGI (A549) was greater than 50 µM. The GI50 (SF-539 [2]) was 890 nM, the LC50 (concentration killing 50% of cells) (SF-539 [2]) was 21 µM and the TGI (SF-539 [2]) was 2420 nM. The GI50 (MDA-MB-468) was 598 nM, the pIC50 (MDA-MB-468) was 6.22 and the TGI (MDA-MB-468) was 2160 nM. The CC50 (MDA-MB-468; [11]) was 50 µM, the GI50 (U-251) was 645 nM and the LC50 (concentration killing 50% of cells) (U-251) was 2920 nM. The TGI (U-251) was 1370 nM, the GI50 (UACC-62) was 725 nM and the LC50 (50% lethal concentration) (UACC-62) was 3.48 µM. For the same compound, the TGI (UACC-62) was 1590 nM, the GI50 (DU-145 [3]) was 1670 nM and the LC50 (DU-145 [3]) was greater than 50 µM. It also gave a TGI (DU-145 [3]) greater than 50 µM, a growth at 10 µM (HT-29) of -64% and a growth at 10 µM (DU-145 [4]) of 9.75%. The GI50 (UO-31) was 702 nM, the TGI (UO-31) was 3.21 µM and the CC50 (UO-31; [11]) was greater than 50 µM. For the same compound, the growth at 10 µM (SNB-19) was 23.5%, the GI50 (ACHN) was 656 nM and the TGI (ACHN) was 3.72 µM. For the same compound, the CC50 (ACHN; [11]) was greater than 50 µM, the growth at 10 µM (OVCAR-3) was -42% and the growth at 10 µM (NCI-H322M [5]) was 21.7%. For the same compound, the GI50 (SR) was 886 nM, the TGI (SR) was 2840 nM and the CC50 (SR; [11]) was greater than 50 µM. For the same compound, the GI50 (OVCAR-8 [6]) was 739 nM, the TGI (OVCAR-8 [6]) was 2700 nM and the CC50 (OVCAR-8 [6]; [11]) was greater than 50 µM. For the same compound, the growth at 10 µM (SF-539 [7]) was -34.2%, the GI50 (KM12) was 573 nM and the pIC50 (KM12) was 6.24. The TGI (KM12) was 1980 nM, the CC50 (KM12; [11]) was greater than 50 µM and the growth at 10 µM (COLO 205) was -88.9%. The growth at 10 µM (MDA-MB-231) was -28.8%, the growth at 10 µM (OVCAR-8 [8]) was -36.2% and the GI50 (UACC-257) was 923 nM. The TGI (UACC-257) was 2310 nM, the CC50 (UACC-257; [11]) was 7.58 µM and the growth at 10 µM (SK-MEL-28) was -18.6%. The GI50 (HCT-116) was 900 nM, the TGI (HCT-116) was 7.17 µM and the CC50 (HCT-116; [11]) was greater than 50 µM. For the same compound, the GI50 (NCI-H322M [9]) was 1210 nM, the TGI (NCI-H322M [9]) was 4.73 µM and the CC50 (NCI-H322M [9]; [11]) was greater than 50 µM. It also gave a growth at 10 µM (MCF7) of -6.3%, a growth at 10 µM (K562) of 1.6% and a GI50 [10] of 1190 nM. For the same compound, the TGI [10] was 3.2 µM, the CC50 [10, 11] was 15.3 µM and the GI50 (SW-620) was 1230 nM. It also gave a TGI (SW-620) of 14.3 µM, a CC50 (SW-620; [11]) of 50 µM and a growth at 10 µM (HOP-92) of -33.6%.
